Article doi:10.1101/2023.11.24.568596v1 (biorxiv, 2023)
Values belong to the compound of their own block, whether it stands above or below them.

Experiments:
Settings in all cases: binder
[1] = target: T1, CaMK4 (Homo sapiens, UniProt Q16566)
T1 sequence (Q16566 1-473): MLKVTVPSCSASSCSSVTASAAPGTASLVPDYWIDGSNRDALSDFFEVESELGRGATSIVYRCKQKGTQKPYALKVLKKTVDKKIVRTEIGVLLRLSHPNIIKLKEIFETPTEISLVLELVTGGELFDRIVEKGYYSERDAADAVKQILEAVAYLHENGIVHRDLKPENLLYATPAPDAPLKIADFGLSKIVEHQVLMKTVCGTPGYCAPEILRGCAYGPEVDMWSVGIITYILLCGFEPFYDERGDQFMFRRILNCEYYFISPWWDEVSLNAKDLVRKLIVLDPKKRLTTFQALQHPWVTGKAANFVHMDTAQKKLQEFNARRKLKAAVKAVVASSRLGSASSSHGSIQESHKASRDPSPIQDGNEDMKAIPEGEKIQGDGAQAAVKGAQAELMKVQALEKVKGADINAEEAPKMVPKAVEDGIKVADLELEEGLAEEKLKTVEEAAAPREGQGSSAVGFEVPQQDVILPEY

[2] = target: Erk3 (Homo sapiens, UniProt Q16659)
[3] = target: T2, FECH (Homo sapiens, UniProt P22830)
T2 sequence (P22830 1-423): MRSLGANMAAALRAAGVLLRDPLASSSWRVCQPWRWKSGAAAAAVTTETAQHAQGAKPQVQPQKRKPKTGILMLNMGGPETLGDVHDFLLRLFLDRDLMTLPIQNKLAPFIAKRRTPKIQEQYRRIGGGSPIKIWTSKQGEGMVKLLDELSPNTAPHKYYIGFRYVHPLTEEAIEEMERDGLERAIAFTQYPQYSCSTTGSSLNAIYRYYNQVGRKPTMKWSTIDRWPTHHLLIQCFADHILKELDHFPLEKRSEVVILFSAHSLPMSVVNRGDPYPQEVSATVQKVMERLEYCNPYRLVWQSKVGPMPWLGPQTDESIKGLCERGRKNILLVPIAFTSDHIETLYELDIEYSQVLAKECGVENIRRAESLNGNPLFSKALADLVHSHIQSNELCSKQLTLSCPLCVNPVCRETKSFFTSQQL

[4] = target: GPRK5 (Homo sapiens, UniProt P34947)
[5] = target: GSK3B (Homo sapiens, UniProt P49841)
[6] = target: JNK2 (Homo sapiens, UniProt P45984)
[7] = target: T3, MER (Homo sapiens, UniProt Q12866)
T3 sequence (Q12866 1-999): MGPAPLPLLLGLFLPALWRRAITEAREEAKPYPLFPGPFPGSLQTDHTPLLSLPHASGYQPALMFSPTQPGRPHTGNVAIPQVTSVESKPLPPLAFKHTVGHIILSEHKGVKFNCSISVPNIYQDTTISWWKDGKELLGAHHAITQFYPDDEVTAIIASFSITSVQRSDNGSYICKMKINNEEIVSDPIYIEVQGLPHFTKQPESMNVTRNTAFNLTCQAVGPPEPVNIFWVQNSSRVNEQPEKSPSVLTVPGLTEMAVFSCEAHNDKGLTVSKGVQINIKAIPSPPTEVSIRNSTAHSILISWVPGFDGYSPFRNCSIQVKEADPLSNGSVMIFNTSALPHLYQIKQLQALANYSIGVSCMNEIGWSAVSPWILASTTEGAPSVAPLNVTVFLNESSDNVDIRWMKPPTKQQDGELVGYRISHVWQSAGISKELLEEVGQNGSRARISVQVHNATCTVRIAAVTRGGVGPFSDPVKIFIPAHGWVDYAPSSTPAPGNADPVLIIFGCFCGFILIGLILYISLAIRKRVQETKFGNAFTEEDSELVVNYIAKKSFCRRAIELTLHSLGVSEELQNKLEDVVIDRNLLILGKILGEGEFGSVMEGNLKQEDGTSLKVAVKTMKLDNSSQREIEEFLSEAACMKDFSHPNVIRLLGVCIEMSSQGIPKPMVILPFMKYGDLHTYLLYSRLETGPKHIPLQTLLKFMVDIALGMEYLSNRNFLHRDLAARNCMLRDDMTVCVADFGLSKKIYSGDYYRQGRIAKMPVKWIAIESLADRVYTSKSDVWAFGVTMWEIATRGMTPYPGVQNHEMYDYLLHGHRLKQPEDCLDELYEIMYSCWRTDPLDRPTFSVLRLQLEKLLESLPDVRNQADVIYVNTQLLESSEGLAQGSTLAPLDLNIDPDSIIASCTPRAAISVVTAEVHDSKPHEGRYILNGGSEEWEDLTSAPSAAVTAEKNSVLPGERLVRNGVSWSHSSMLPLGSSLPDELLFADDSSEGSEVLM

[8] = target: T4, MST2 (Homo sapiens, UniProt Q13188)
T4 sequence (Q13188 1-491): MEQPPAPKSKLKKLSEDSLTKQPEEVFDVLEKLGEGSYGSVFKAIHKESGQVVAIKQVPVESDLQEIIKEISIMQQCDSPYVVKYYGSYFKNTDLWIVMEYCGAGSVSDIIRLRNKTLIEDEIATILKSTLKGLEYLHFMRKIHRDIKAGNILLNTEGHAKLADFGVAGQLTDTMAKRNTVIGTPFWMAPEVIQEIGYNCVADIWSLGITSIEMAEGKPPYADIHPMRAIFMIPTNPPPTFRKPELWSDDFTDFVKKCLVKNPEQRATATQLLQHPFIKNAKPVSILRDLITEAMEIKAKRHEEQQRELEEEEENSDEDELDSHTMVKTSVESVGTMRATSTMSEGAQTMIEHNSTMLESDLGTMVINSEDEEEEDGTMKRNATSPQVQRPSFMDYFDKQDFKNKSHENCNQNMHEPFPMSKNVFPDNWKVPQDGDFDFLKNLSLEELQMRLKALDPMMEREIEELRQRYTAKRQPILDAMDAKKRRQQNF

[9] = target: OSR1 (Homo sapiens, UniProt O95747)
Chain of OSR1 (O95747 whole entry): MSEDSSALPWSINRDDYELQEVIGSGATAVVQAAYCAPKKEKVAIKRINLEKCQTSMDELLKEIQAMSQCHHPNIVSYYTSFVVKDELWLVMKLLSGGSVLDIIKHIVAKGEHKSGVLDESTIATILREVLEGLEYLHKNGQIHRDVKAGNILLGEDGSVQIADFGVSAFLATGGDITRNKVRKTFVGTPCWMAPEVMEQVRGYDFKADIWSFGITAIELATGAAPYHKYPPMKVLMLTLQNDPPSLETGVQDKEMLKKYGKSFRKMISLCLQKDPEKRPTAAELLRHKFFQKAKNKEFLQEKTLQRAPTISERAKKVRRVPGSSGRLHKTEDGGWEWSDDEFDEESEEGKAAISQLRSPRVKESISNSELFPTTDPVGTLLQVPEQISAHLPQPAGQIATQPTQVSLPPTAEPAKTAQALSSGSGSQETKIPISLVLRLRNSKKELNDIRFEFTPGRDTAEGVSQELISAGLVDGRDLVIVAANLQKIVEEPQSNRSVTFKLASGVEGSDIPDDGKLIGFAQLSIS

Chain of GSK3B (P49841 whole entry): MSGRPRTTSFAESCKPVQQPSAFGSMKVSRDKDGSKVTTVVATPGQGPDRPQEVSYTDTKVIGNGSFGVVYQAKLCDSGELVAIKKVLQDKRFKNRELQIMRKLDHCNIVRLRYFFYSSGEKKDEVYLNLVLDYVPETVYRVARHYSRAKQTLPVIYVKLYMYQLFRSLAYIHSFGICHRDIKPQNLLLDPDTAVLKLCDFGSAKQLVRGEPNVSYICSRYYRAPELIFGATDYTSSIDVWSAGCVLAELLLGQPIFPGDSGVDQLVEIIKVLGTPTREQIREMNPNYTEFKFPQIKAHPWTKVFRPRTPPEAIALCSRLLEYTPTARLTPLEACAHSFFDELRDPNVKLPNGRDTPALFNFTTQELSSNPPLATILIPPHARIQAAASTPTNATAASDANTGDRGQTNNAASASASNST
Chain of Erk3 (Q16659 whole entry): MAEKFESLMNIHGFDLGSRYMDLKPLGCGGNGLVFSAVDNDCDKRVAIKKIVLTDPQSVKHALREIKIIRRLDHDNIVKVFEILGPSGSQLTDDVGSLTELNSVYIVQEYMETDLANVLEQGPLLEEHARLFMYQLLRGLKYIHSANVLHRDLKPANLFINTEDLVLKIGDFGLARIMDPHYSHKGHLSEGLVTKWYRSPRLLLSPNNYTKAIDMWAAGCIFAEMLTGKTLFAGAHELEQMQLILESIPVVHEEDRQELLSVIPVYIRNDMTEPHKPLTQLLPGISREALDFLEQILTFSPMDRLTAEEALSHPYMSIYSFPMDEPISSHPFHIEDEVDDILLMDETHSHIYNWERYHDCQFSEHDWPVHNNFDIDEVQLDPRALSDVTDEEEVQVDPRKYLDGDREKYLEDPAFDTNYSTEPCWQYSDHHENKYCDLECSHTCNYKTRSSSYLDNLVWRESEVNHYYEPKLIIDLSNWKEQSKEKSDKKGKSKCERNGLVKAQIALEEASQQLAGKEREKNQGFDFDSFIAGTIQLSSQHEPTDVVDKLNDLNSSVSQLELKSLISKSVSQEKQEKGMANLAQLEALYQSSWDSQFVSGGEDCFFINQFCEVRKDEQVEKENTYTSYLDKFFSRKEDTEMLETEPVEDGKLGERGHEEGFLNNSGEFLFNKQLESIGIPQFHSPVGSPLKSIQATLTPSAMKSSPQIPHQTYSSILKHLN
Chain of JNK2 (P45984 whole entry): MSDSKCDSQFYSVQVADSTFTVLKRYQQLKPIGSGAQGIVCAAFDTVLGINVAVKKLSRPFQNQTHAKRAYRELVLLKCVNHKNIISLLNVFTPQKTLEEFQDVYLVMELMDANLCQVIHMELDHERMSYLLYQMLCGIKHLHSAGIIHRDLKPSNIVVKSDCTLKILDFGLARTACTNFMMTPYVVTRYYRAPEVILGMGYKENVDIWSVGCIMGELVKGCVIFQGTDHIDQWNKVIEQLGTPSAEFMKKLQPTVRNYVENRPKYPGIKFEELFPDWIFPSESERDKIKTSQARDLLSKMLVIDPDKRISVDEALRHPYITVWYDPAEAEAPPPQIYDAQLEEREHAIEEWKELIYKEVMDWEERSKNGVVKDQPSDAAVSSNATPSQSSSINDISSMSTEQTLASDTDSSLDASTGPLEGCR
Chain of GPRK5 (P34947 whole entry): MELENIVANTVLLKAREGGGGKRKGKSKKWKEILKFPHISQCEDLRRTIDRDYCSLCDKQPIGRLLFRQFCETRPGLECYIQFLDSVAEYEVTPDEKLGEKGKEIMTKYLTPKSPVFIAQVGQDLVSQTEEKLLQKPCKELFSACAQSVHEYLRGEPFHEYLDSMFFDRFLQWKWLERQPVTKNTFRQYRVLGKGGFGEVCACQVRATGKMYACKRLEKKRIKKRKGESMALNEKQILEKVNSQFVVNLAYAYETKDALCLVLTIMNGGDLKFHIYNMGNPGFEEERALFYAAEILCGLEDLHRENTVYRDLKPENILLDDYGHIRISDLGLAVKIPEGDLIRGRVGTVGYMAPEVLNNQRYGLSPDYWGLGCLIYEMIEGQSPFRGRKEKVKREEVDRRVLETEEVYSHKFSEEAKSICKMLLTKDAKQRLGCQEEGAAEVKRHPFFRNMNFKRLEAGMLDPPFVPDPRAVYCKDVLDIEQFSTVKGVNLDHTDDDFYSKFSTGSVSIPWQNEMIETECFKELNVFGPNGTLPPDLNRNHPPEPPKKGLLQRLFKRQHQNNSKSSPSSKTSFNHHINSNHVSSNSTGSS

Structure (SMILES): Cc1cccc(-c2ccc(-c3cc4cnc(NCCCN5CCCC5=O)nc4n(CCCCN)c3=O)c(Cl)c2)n1 [compound 27, MR30]
- ΔTm MR30 (27) [1]: 2.5 °C
- ΔTm MR30 (27) [2]: 0.5 °C
- ΔTm MR30 (27) [3]: 0.5 °C
- ΔTm MR30 (27) [4]: -1.1 °C
- ΔTm MR30 (27) [5]: 1.9 °C
- ΔTm MR30 (27) [6]: 0.7 °C
- ΔTm MR30 (27) [7]: 0.7 °C
- ΔTm MR30 (27) [8]: 5.9 °C
- ΔTm MR30 (27) [9]: -1.1 °C

Structure (SMILES): Cc1cccc(-c2ccc(-c3cc4cnc(Nc5ccc(CCCO)cc5)nc4n(CCCCN)c3=O)c(Cl)c2)n1 [compound 30, 8-(4-Aminobutyl)-6-(2-chloro-4-(6-methylpyridin-2-yl)phenyl)-2-((4-(3-hydroxypropyl)phenyl)amino)pyrido[2,3-d]pyrimidin-7(8H)-one]
- ΔTm 30 [1]: 5.5 °C
- ΔTm 30 [2]: 1.1 °C
- ΔTm 30 [3]: 0.5 °C
- ΔTm 30 [4]: -0.9 °C
- ΔTm 30 [5]: 1.9 °C
- ΔTm 30 [6]: 4.3 °C
- ΔTm 30 [7]: 3.1 °C
- ΔTm 30 [8]: 15.0 °C
- ΔTm 30 [9]: 2.3 °C

Structure (SMILES): Cc1cccc(-c2ccc(-c3cc4cnc(NCCCN5CCNCC5)nc4n(CCCCN)c3=O)c(Cl)c2)n1 [compound 29, 8-(4-Aminobutyl)-6-(2-chloro-4-(6-methylpyridin-2-yl)phenyl)-2-((3-(piperazin-1-yl)propyl)amino)pyrido[2,3-d]pyrimidin-7(8H)-one]
- ΔTm 29 [1]: 1.5 °C
- ΔTm 29 [2]: 0.3 °C
- ΔTm 29 [3]: -0.4 °C
- ΔTm 29 [4]: -0.4 °C
- ΔTm 29 [5]: 0.3 °C
- ΔTm 29 [6]: -0.1 °C
- ΔTm 29 [7]: 1.0 °C
- ΔTm 29 [8]: 9.1 °C
- ΔTm 29 [9]: 0.3 °C

Now from value to compound:

- ΔTm 32 [1]: 4.9 °C
- ΔTm 32 [2]: 1.0 °C
- ΔTm 32 [3]: 3.8 °C
- ΔTm 32 [4]: -0.4 °C
- ΔTm 32 [5]: 2.2 °C
- ΔTm 32 [6]: 3.3 °C
- ΔTm 32 [7]: 2.8 °C
- ΔTm 32 [8]: 14.7 °C
- ΔTm 32 [9]: 3.1 °C
Structure (SMILES): Cc1cccc(-c2ccc(-c3cc4cnc(Nc5ccc(C)c(O)c5)nc4n(CCCCN)c3=O)c(Cl)c2)n1 [compound 32, 8-(4-Aminobutyl)-6-(2-chloro-4-(6-methylpyridin-2-yl)phenyl)-2-((3-hydroxy-4-methylphenyl)amino)pyrido[2,3-d]pyrimidin-7(8H)-one]

- ΔTm 31 [1]: 5.0 °C
- ΔTm 31 [2]: 1.2 °C
- ΔTm 31 [3]: 2.0 °C
- ΔTm 31 [4]: -0.2 °C
- ΔTm 31 [5]: 3.2 °C
- ΔTm 31 [6]: 4.2 °C
- ΔTm 31 [7]: 3.3 °C
- ΔTm 31 [8]: 14.3 °C
- ΔTm 31 [9]: 3.1 °C
Structure (SMILES): Cc1cccc(-c2ccc(-c3cc4cnc(Nc5ccc(O)cc5)nc4n(CCCCN)c3=O)c(Cl)c2)n1 [compound 31, 8-(4-Aminobutyl)-6-(2-chloro-4-(6-methylpyridin-2-yl)phenyl)-2-((4-hydroxyphenyl)amino) pyrido[2,3-d]pyrimidin-7(8H)-one]

- ΔTm 28 [1]: 3.9 °C
- ΔTm 28 [2]: 0.7 °C
- ΔTm 28 [3]: 10.6 °C
- ΔTm 28 [4]: -0.6 °C
- ΔTm 28 [5]: 0.3 °C
- ΔTm 28 [6]: 0.0 °C
- ΔTm 28 [7]: 0.1 °C
- ΔTm 28 [8]: 10.1 °C
- ΔTm 28 [9]: 0.1 °C
Structure (SMILES): Cc1cccc(-c2ccc(-c3cc4cnc(Nc5cc(C(F)(F)F)ccc5C)nc4n(CCCCN)c3=O)c(Cl)c2)n1 [compound 28, 8-(4-Aminobutyl)-6-(2-chloro-4-(6-methylpyridin-2-yl)phenyl)-2-((2-methyl-5-(trifluoromethyl)phenyl)amino)pyrido[2,3-d]pyrimidin-7(8H)-one]
